Drawing on patent publication US20120328569A1, “INHIBITORS OF HEPATITIS C VIRUS NS5B POLYMERASE” (priority 2010, published 2012), this text covers IC50 for 30 compounds.

In one test the test system is HCV genotype 1b replicon. Put plainly: HCV replicon assay, cell ELISA with antibody to replicon-encoded NS3/4A (genotype 1b replicon). In kind it is cell-based, hepatitis C virus. The settings on record: Hepatitis C virus, 96 h, read-out: 1b IC50(nM), HCV genotype 1b replicon; 96 hours incubation; NS3/4A cell ELISA. The method in brief: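 Replicon-harbouring cells carrying neomycin phosphotransferase were incubated 96 h with a compound dilution series without G418. Replication was quantified indirectly by a cell ELISA detecting replicon-encoded NS3/4A. IC50 values were calculated relative to DMSO control with a four-parameter fit.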
A general note: A replicon is a self-replicating genome or part of one, used to study replication in cells.
`CNC(=O)c1c(-c2ccc(F)cc2)oc2cc(N(C)S(C)(=O)=O)c(-c3ccc(OC)c(-c4nc5c(F)cccc5o4)c3)cc12` [Example 411, 5-[3-(4-Fluoro-benzooxazol-2-yl)-4-methoxy-phenyl]-2-(4-fluoro-phenyl)-6-(methanesulfonyl-methyl-amino)-benzofuran-3-carboxylic acid methylamide]: the IC50 turned out to be 7.1 nM.

As to `CNC(=O)c1c(-c2ccc(F)cc2)oc2cc(N(C)S(C)(=O)=O)c(-c3ccc(S(C)(=O)=O)c(-c4nc5c(Cl)cccc5o4)c3)cc12` [Example 420], the IC50 is 5.08 nM.

In the case of `CNC(=O)c1c(-c2ccc(F)cc2)oc2cc(N(C)S(C)(=O)=O)c(-c3cc(-c4nc5c(F)cccc5o4)c4oc(=O)[nH]c4c3)cc12` [Example 425], the IC50 is 3.04 nM.

As to `CNC(=O)c1c(-c2ccc(F)cc2)oc2cc(N(C)S(C)(=O)=O)c(-c3ccc(OC)c(-c4nc5c(CC#N)cccc5[nH]4)c3)cc12` [Example 427], the IC50 amounted to 4.35 nM.

Consider `CNC(=O)c1c(-c2ccc(F)cc2)oc2cc(N(C)S(C)(=O)=O)c(-c3ccc(OC)c(-c4nc5c(C(C)(C)C#N)cccc5o4)c3)cc12` [Example 428], for which the IC50 was 29.1 nM.

As for `CNC(=O)c1c(-c2ccc(F)cc2)oc2cc(N(C)S(C)(=O)=O)c(-c3ccc(CC#N)c(-c4nc5c(F)cccc5o4)c3)cc12` [Example 429], the IC50 is 4.91 nM.

In the case of `CNC(=O)c1c(-c2ccc(F)cc2)oc2cc(N(C)S(C)(=O)=O)c(-c3cc4c(c(-c5nc6c(F)cccc6o5)c3)OCCO4)cc12` [Example 436], the IC50 came to 4.37 nM.

Turning to `CNC(=O)c1c(-c2ccc(F)cc2)oc2cc(N(C)S(C)(=O)=O)c(-c3ccc(-c4ccco4)c(-c4nc5c(F)cccc5o4)c3)cc12` [Example 478], the IC50 was determined as 8.65 nM.

For `CNC(=O)c1c(-c2ccc(F)cc2)oc2cc(N(C)S(C)(=O)=O)c(-c3ccc(-c4cnco4)c(-c4nc5c(F)cccc5o4)c3)cc12` [Example 479], the IC50 came to 1.95 nM.

With `CNC(=O)c1c(-c2ccc(F)cc2)oc2cc(N(C)S(C)(=O)=O)c(-c3ccc(-c4cnco4)c(-c4nc5c(Cl)cccc5o4)c3)cc12` [Example 480], the IC50 came out at 3.01 nM.

As for `CNC(=O)c1c(-c2ccc(F)cc2)oc2cc(N(C)S(C)(=O)=O)c(-c3ccc(N4CCOC4=O)c(-c4nc5c(F)cccc5o4)c3)cc12` [Example 483], the IC50 stood at 2.48 nM.

As to `CNC(=O)c1c(-c2ccc(F)cc2)oc2cc(N(C)S(C)(=O)=O)c(-c3ccc(N4CCNC4=O)c(-c4nc5c(F)cccc5o4)c3)cc12` [Example 484], the IC50 came out at 3.31 nM.

With `CNC(=O)c1c(-c2ccc(F)cc2)oc2cc(N(C)S(C)(=O)=O)c(-c3csc(-c4nc5c(F)cccc5o4)c3)cc12` [Example 504], the IC50 was 1.53 nM.

For the compound `CNC(=O)c1c(-c2ccc(F)cc2)oc2cc(N(C)S(C)(=O)=O)c(-c3cnc(OC)c(-c4nc5c(F)cccc5o4)c3)cc12` [Example 507], the IC50 stood at 0.68 nM.

In the case of `CNC(=O)c1c(-c2ccc(F)cc2)oc2cc(N(C)S(C)(=O)=O)c(-c3cc(-c4nc5ncccc5o4)ccn3)cc12` [Example 509], the IC50 is 3 nM.

`CNC(=O)c1c(-c2ccc(F)cc2)oc2cc(N(C)S(C)(=O)=O)c(-c3cccc(-c4nc5c(o4)CCCC5(F)F)c3)cc12` [Example 515]: the IC50 is 3.99 nM.

Staying with this test, now noted: Hepatitis C virus, 96 h, read-out: Replicon 1b IC50 (nM), HCV genotype 1b replicon cells, 96 hours incubation, NS3/4A ELISA readout.
Regarding `CNC(=O)c1c(-c2ccc(F)cc2)oc2cc(N(C)S(C)(=O)=O)c(-c3cccc(-c4[nH]c5ccccc5c4Br)c3)cc12` [Example 382, 5-(3-(3-bromo-1H-indol-2-yl)phenyl)-2-(4-fluorophenyl)-N-methyl-6-(N-methylmethylsulfonamido)benzofuran-3-carboxamide], the IC50 stood at 8.9 nM.

On to `CNC(=O)c1c(-c2ccc(F)cc2)oc2cc(N(C)S(C)(=O)=O)c(-c3cccc(-c4[nH]c5ncccc5c4CO)c3)cc12` [Example 383, 2-(4-fluorophenyl)-5-(3-(3-(hydroxymethyl)-1H-pyrrolo[2,3-b]pyridin-2-yl)phenyl)-N-methyl-6-(N-methylmethylsulfonamido)benzofuran-3-carboxamide], for which the IC50 was 2.5 nM.

For the compound `CNC(=O)c1c(-c2ccc(F)cc2)oc2cc(N(CCCO)S(C)(=O)=O)c(-c3cccc(-c4nc5ncccc5o4)c3)cc12` [Example 384, 2-(4-fluorophenyl)-6-(N-(3-hydroxypropyl)methylsulfonamido)-N-methyl-5-(3-(oxazolo[4,5-b]pyridin-2-yl)phenyl)benzofuran-3-carboxamide], the IC50 is 0.9 nM.

For the compound `CNC(=O)c1c(-c2ccc(F)cc2)oc2cc(N(CCN3CCOCC3)S(C)(=O)=O)c(-c3cccc(-c4nc5ncccc5o4)c3)cc12` [Example 397, 2-(4-fluorophenyl)-N-methyl-6-(N-(2-morpholinoethyl)methylsulfonamido)-5-(3-(oxazolo[4,5-b]pyridin-2-yl)phenyl)benzofuran-3-carboxamide], the IC50 stood at 3.6 nM.

Consider `CNC(=O)c1c(-c2ccc(F)cc2)oc2cc(N(C)S(=O)(=O)c3ccccc3)c(-c3cccc(-c4nc5ncccc5o4)c3)cc12` [Example 400, 2-(4-fluorophenyl)-N-methyl-6-(N-methylphenylsulfonamido)-5(3-(oxazolo[4,5-b]pyridin-2-yl)phenyl)benzofuran-3-carboxamide], for which the IC50 stood at 303 nM.

As to `CNC(=O)c1c(-c2ccc(F)cc2)oc2cc(N(C)S(C)(=O)=O)c(-c3ccc(OC)c(-c4nc5c(F)cccc5o4)c3)cc12` [Example 402, 5-(3-(4-fluorobenzo[d]oxazol-2-yl)-4-methoxyphenyl)-2-(4-fluorophenyl)-N-methyl-6-(N-methylmethylsulfonamido)benzofuran-3-carboxamide], the IC50 was 0.9 nM.

As to `CNC(=O)c1c(-c2ccc(F)cc2)oc2cc(N(C)S(C)(=O)=O)c(-c3ccc(OC)c(-c4nc5c(C#N)cccc5o4)c3)cc12` [Example 403, 5-(3-(4-cyanobenzo[d]oxazol-2-yl)-4-methoxyphenyl)-2-(4-fluorophenyl)-N-methyl-6-(N-methylmethylsulfonamido)benzofuran-3-carboxamide], the IC50 stood at 3.8 nM.

For `CNC(=O)c1c(-c2ccc(F)cc2)oc2cc(N(C)S(C)(=O)=O)c(-c3ccc(OC)c(-c4nc5cc(F)ccc5o4)c3)cc12` [Example 404], the IC50 came to 2.6 nM.

For the compound `CNC(=O)c1c(-c2ccc(F)cc2)oc2cc(N(C)S(C)(=O)=O)c(-c3ccc(Cl)c(-c4nc5c(F)cccc5o4)c3)cc12` [Example 405], the IC50 was found to be 4.7 nM.

For the compound `CNC(=O)c1c(-c2ccc(F)cc2)oc2cc(N(C)S(C)(=O)=O)c(-c3cc(Cl)cc(-c4nc5c(F)cccc5o4)c3)cc12` [Example 406], the IC50 came to 15.1 nM.

In the case of `CNC(=O)c1c(-c2ccc(F)cc2)oc2cc(N(C)S(C)(=O)=O)c(-c3ccc(OC)c(-c4nc5cccc(C#N)c5o4)c3)cc12` [Example 407], the IC50 was 2.8 nM.

Regarding `CNC(=O)c1c(-c2ccc(F)cc2)oc2cc(N(C)S(C)(=O)=O)c(-c3ccc(OC)c(-c4nc5c(F)cc(F)cc5o4)c3)cc12` [Example 408], the IC50 was 3.8 nM.

With `CNC(=O)c1c(-c2ccc(F)cc2)oc2cc(N(C)S(C)(=O)=O)c(-c3ccc(OC)c(-c4nc5c(F)ccc(F)c5o4)c3)cc12` [Example 409], the IC50 was 2.1 nM.

On to `CNC(=O)c1c(-c2ccc(F)cc2)oc2cc(N(C)S(C)(=O)=O)c(-c3ccc(OC)c(-c4nc5cc(F)cc(F)c5o4)c3)cc12` [Example 410], for which the IC50 was 0.5 nM.
